Data reported in ChEMBL document CHEMBL1201862, “PubChem BioAssay data set” (2004).
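How tested: cells in 96-well plates exposed to compound for 48 hours at five concentrations. GI50: concentration for 50% inhibition of growth.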 Calls of active or inactive are those of the source. No stated cut-off is given here; in the data, active = GI50 up to about 1.1 µM and inactive = higher.

What was measured:
Assay in all cases: NCI-60 cell line screen, 48 h
786-0 = test system: 786-0
A549 = test system: A549
ACHN = test system: ACHN
CCRF-CEM = test system: CCRF-CEM
DU-145 = test system: DU-145
IGROV-1 = test system: IGROV-1
LOX IMVI = test system: LOX IMVI
M14 = test system: M14
MCF7 = test system: MCF7
MDA-N = test system: MDA-N
Malme-3M = test system: Malme-3M
NCI-H226 = test system: NCI-H226
NCI/ADR-RES = test system: NCI/ADR-RES
OVCAR-3 = test system: OVCAR-3
SF-268 = test system: SF-268
SF-295 = test system: SF-295
SK-OV-3 = test system: SK-OV-3
T47D = test system: T47D
UACC-257 = test system: UACC-257
HL-60 = test system: HL-60

SMILES	GI50 (786-0)	GI50 (A549)	GI50 (ACHN)	GI50 (CCRF-CEM)	GI50 (DU-145)	GI50 (IGROV-1)	GI50 (LOX IMVI)	GI50 (M14)	GI50 (MCF7)	GI50 (MDA-N)	GI50 (Malme-3M)	GI50 (NCI-H226)	GI50 (NCI/ADR-RES)	GI50 (OVCAR-3)	GI50 (SF-268)	GI50 (SF-295)	GI50 (SK-OV-3)	GI50 (T47D)	GI50 (UACC-257)	GI50 (HL-60)
COC(=O)C(=O)C(C(=O)C(=O)Nc1cc(C)ccc1C)c1nc2ccccc2nc1O (configuration not stated)	> 100 µM (inactive)	85.3 µM (inactive)	> 100 µM (inactive)	36.1 µM (inactive)	> 100 µM (inactive)	67 µM (inactive)	> 100 µM (inactive)	> 100 µM (inactive)	> 100 µM (inactive)	> 100 µM (inactive)	> 100 µM (inactive)	> 100 µM (inactive)	> 100 µM (inactive)	> 100 µM (inactive)	> 100 µM (inactive)	> 100 µM (inactive)	> 100 µM (inactive)	> 100 µM (inactive)	> 100 µM (inactive)	–
CCCCCCCCCCCCNC(=O)CCC(NC(=O)c1ccc(N(C)Cc2cnc3nc(N)nc(N)c3n2)cc1)C(=O)NCCCCCCCCCCCC (configuration not stated)	22.6 µM (inactive)	> 100 µM (inactive)	> 100 µM (inactive)	25.8 µM (inactive)	> 100 µM (inactive)	36.1 µM (inactive)	17 µM (inactive)	56.5 µM (inactive)	30.6 µM (inactive)	41.7 µM (inactive)	95.5 µM (inactive)	> 100 µM (inactive)	> 100 µM (inactive)	31.5 µM (inactive)	78.3 µM (inactive)	25.4 µM (inactive)	–	24.4 µM (inactive)	> 100 µM (inactive)	31.8 µM (inactive)
CCn1c(SCc2nnc(Nc3ccccc3)s2)nc2ccccc2c1=O	2.02 µM (inactive)	3.67 µM (inactive)	2.85 µM (inactive)	47.6 µM (inactive)	9.1 µM (inactive)	3.62 µM (inactive)	5.02 µM (inactive)	10.4 µM (inactive)	9.93 µM (inactive)	8.77 µM (inactive)	1.46 µM (inactive)	2.19 µM (inactive)	2.59 µM (inactive)	5.19 µM (inactive)	3.98 µM (inactive)	2.52 µM (inactive)	2.62 µM (inactive)	5.57 µM (inactive)	11.8 µM (inactive)	–
NNC(=O)c1ccc[n+](CCc2ccccc2)c1	> 100 µM (inactive)	> 100 µM (inactive)	> 100 µM (inactive)	–	> 100 µM (inactive)	> 100 µM (inactive)	> 100 µM (inactive)	> 100 µM (inactive)	> 100 µM (inactive)	> 100 µM (inactive)	> 100 µM (inactive)	> 100 µM (inactive)	> 100 µM (inactive)	> 100 µM (inactive)	> 100 µM (inactive)	> 100 µM (inactive)	> 100 µM (inactive)	> 100 µM (inactive)	> 100 µM (inactive)	> 100 µM (inactive)
COc1ccc2c(c1)CCC/C2=N\NS(=O)(=O)c1c(C)cc(C)cc1C	19.1 µM (inactive)	34.9 µM (inactive)	27.7 µM (inactive)	27.1 µM (inactive)	25.6 µM (inactive)	19 µM (inactive)	19.4 µM (inactive)	33.2 µM (inactive)	37.8 µM (inactive)	28.6 µM (inactive)	24.4 µM (inactive)	22.2 µM (inactive)	21.7 µM (inactive)	32.4 µM (inactive)	–	34.4 µM (inactive)	–	16.5 µM (inactive)	39.2 µM (inactive)	–
N=C(N)/N=C(\N)Nc1cnccn1	> 100 µM (inactive)	> 100 µM (inactive)	> 100 µM (inactive)	> 100 µM (inactive)	> 100 µM (inactive)	> 100 µM (inactive)	> 100 µM (inactive)	> 100 µM (inactive)	> 100 µM (inactive)	> 100 µM (inactive)	> 100 µM (inactive)	> 100 µM (inactive)	> 100 µM (inactive)	> 100 µM (inactive)	–	> 100 µM (inactive)	> 100 µM (inactive)	> 100 µM (inactive)	> 100 µM (inactive)	> 100 µM (inactive)
CCOC(=O)CCC(NC(=O)Cc1ccc(Nc2nc3ccccc3nc2-c2ccccc2)cc1)C(=O)OCC (configuration not stated)	7.83 µM (inactive)	79.6 µM (inactive)	41.5 µM (inactive)	> 100 µM (inactive)	> 100 µM (inactive)	51.8 µM (inactive)	> 100 µM (inactive)	65.6 µM (inactive)	> 100 µM (inactive)	> 100 µM (inactive)	33 µM (inactive)	72.1 µM (inactive)	50.5 µM (inactive)	–	5.26 µM (inactive)	16.1 µM (inactive)	22.4 µM (inactive)	> 100 µM (inactive)	> 100 µM (inactive)	> 100 µM (inactive)
CC(N)(CC(O)(C(F)(F)Cl)C(F)(F)Cl)C(=O)O (configuration not stated)	> 10 µM (inactive)	> 10 µM (inactive)	> 10 µM (inactive)	> 10 µM (inactive)	> 10 µM (inactive)	> 10 µM (inactive)	> 10 µM (inactive)	> 10 µM (inactive)	> 10 µM (inactive)	> 10 µM (inactive)	> 10 µM (inactive)	> 10 µM (inactive)	> 10 µM (inactive)	> 10 µM (inactive)	> 10 µM (inactive)	> 10 µM (inactive)	> 10 µM (inactive)	> 10 µM (inactive)	> 10 µM (inactive)	–
O=C1Nc2ccccc2C1Cc1ccc([N+](=O)[O-])cc1 (configuration not stated)	> 100 µM (inactive)	> 100 µM (inactive)	> 100 µM (inactive)	20.1 µM (inactive)	> 100 µM (inactive)	21.6 µM (inactive)	> 100 µM (inactive)	> 100 µM (inactive)	> 100 µM (inactive)	71.4 µM (inactive)	–	> 100 µM (inactive)	> 100 µM (inactive)	> 100 µM (inactive)	> 100 µM (inactive)	> 100 µM (inactive)	> 100 µM (inactive)	> 100 µM (inactive)	> 100 µM (inactive)	5.57 µM (inactive)
Nc1ccc2c(c1)C(=O)N1CCC[C@H]1C(=O)N2	> 100 µM (inactive)	> 100 µM (inactive)	> 100 µM (inactive)	1.38 µM (inactive)	> 100 µM (inactive)	> 100 µM (inactive)	> 100 µM (inactive)	> 100 µM (inactive)	> 100 µM (inactive)	> 100 µM (inactive)	> 100 µM (inactive)	> 100 µM (inactive)	> 100 µM (inactive)	> 100 µM (inactive)	> 100 µM (inactive)	> 100 µM (inactive)	> 100 µM (inactive)	> 100 µM (inactive)	> 100 µM (inactive)	–
Cc1cc2c(cc1Cl)SC(c1ccccc1)C(=O)NS2(=O)=O (configuration not stated)	31.6 µM (inactive)	–	36.7 µM (inactive)	47.4 µM (inactive)	34.9 µM (inactive)	40.8 µM (inactive)	31.6 µM (inactive)	39 µM (inactive)	34 µM (inactive)	34.1 µM (inactive)	–	36.3 µM (inactive)	29.5 µM (inactive)	21.6 µM (inactive)	33.3 µM (inactive)	28.3 µM (inactive)	31.9 µM (inactive)	30.1 µM (inactive)	28.2 µM (inactive)	29.3 µM (inactive)
CN(C)/C=N/c1ccc2nonc2c1	> 100 µM (inactive)	> 100 µM (inactive)	> 100 µM (inactive)	> 100 µM (inactive)	> 100 µM (inactive)	> 100 µM (inactive)	–	> 100 µM (inactive)	> 100 µM (inactive)	> 100 µM (inactive)	> 100 µM (inactive)	> 100 µM (inactive)	> 100 µM (inactive)	> 100 µM (inactive)	> 100 µM (inactive)	> 100 µM (inactive)	> 100 µM (inactive)	> 100 µM (inactive)	> 100 µM (inactive)	> 100 µM (inactive)
Cc1ccc(SC(=O)N2C(=S)N=C(NC3CCCCC3)C23CCCCC3)cc1	> 100 µM (inactive)	75.5 µM (inactive)	80 µM (inactive)	29 µM (inactive)	> 100 µM (inactive)	36.1 µM (inactive)	95.5 µM (inactive)	> 100 µM (inactive)	51.2 µM (inactive)	> 100 µM (inactive)	> 100 µM (inactive)	–	> 100 µM (inactive)	50.6 µM (inactive)	> 100 µM (inactive)	> 100 µM (inactive)	> 100 µM (inactive)	52.1 µM (inactive)	82.8 µM (inactive)	38.6 µM (inactive)
Cc1cccc(-c2cc(O)c3cc(C)cnc3n2)c1	0.361 µM (active)	0.279 µM (active)	0.532 µM (active)	0.202 µM (active)	0.279 µM (active)	0.54 µM (active)	0.478 µM (active)	0.0998 µM (active)	0.305 µM (active)	0.0194 µM (active)	0.111 µM (active)	0.238 µM (active)	0.122 µM (active)	0.143 µM (active)	0.724 µM (active)	0.148 µM (active)	0.272 µM (active)	6.5 µM (inactive)	–	0.0338 µM (active)
O=C(O)[C@@H]1CCCN1 [PROLINE]	> 100 µM (inactive)	> 100 µM (inactive)	> 100 µM (inactive)	–	> 100 µM (inactive)	> 100 µM (inactive)	> 100 µM (inactive)	> 100 µM (inactive)	> 100 µM (inactive)	> 100 µM (inactive)	> 100 µM (inactive)	> 100 µM (inactive)	> 100 µM (inactive)	> 100 µM (inactive)	> 100 µM (inactive)	> 100 µM (inactive)	> 100 µM (inactive)	> 100 µM (inactive)	> 100 µM (inactive)	> 100 µM (inactive)
